From publication PMC11358582, “Discovery of a potential bladder cancer inhibitor CHNQD-01281 by regulating EGFR and promoting infiltration of cytotoxic T cells” (Marine Life Science & Technology, 2024) come the findings set out here.

Series [1] deals with human hepatocyte cell line L-02. Kind of series: MTT cell proliferation assay. Format: cell-based. The note with it: L-02, MTT. The procedure:
Human tumor cell lines Eca-109, BEL-7402, BxPC-3, HCT-116, HT-29, T24, HCT-8, SGC-7901, DLD-1, TE-1, BT-549, MGC-803 and human hepatocyte cell line L-02 were cultured in Roswell Park Memorial Institute (RPMI) 1640. HuH-7 and SW-480 were cultured in Dulbecco’s modified Eagle’s medium (DMEM). J82, HepG2, Hela, U87 were cultured in Minimum Essential Medium (MEM). Murine bladder cancer cell line, MB49, was cultured in DMEM. The above-mentioned culture medium was provided by GIBCO (Grand Island, USA), contained 10% fetal bovine serum (PAN, Germany), 10 mg/mL of streptomycin, and 10 kU/mL penicillin (Beyotime, China).
Cells were seeded in 96-well plates and incubated with indicated concentrations of CHNQD-01281 for indicated periods. Next, medium was discarded and MTT (5 mg/mL) was added to each well. The cells were incubated at 37 °C for another 4 h. After that, supernatant was discarded, and DMSO was added and incubated at 37 °C for 15 min. Finally, absorbance was measured at 570 nm (Molecular Devices, USA).
Thus, the bladder cancer cell lines J82 and T24 were further investigated and treated by CHNQD-01281 under gradient concentrations (0.031−1.00 µmol/L) and times (24, 72 and 120 h) to measure proliferation activities (Fig. 2B). However, the inhibition of T24 or J82 cell lines by CHNQD-01281 was less than 50% even at the highest concentration of 1 µmol/L for 24 h. […] Therefore, CHNQD-01281 has a higher selectivity index compared to BFA.

Series [2] is described as follows: Solubility in selected aqueous solutions. Format: physicochemical. An excerpt: The problem of poor water solubility is one of the factors that seriously restricts the preclinical application of BFA. Therefore, from the perspective of pharmaceutics, it is of great application value to explore safe and effective methods to improve its solubility. Based on the previous screening of commonly used solvents, solubilizers and co-solvents for BFA and its derivatives, we explored the solubility of CHNQD-01281, which was compared and assessed in selected aqueous solutions (Table 1). Saline or PBS were commonly used solvents, but the solubility of BFA or CHNQD-01281 was less than 1 mg/mL when used alone. No significant improvement in solubility was observed after the addition of DMSO or PEG400. […] More importantly, the solution system of CHNQD-01281 with saline/DMSO/solutol HS-15 (85/5/10) can fully meet the needs of follow-up experiments in vivo, such as pharmacodynamics, pharmacokinetics and safety evaluation.

For series [3], the system named is EGFR. Nature of the series: Western blot of EGFR expression in T24 cells. Format: cell-based, human. The note with it: T24, 0.16 µmol/L, versus control. The procedure: T24 and J82 cell lines were lysed in protein lysis buffer, which included phosphatase inhibitors and a cocktail of protease inhibitors. A BCA kit (SparkJade, China) was used to determine the total protein concentration. After protein denaturation, SDS-PAGE electrophoresis was performed and the protein transferred from the gel to a PVDF membrane (Millipore, USA). Then primary antibodies against cleaved caspases-3, cleaved PARP, AKT, phosphorylated AKT, ERK1/2, phosphorylated ERK1/2, EGFR, mTOR, phosphorylated mTOR and Tubulin (CST, USA) were diluted at 1:1000 at 4 °C overnight. The membranes were then washed and incubated with secondary antibodies dissolved in 5% nonfat milk. A chemiluminescence imaging system was used to detect the signals (Tanon, China).
EGFR is overexpressed in malignant urothelial cells, which is associated with the deterioration, invasiveness and metastasis of tumors. It is a potential therapeutic target for bladder carcinoma. Therefore, we examined the expression of EGFR and its downstream proteins after treating bladder cancer cells with CHNQD-01281 (Supplementary Fig. S11). […] Taken together, CHNQD-01281 inhibited the proliferation of bladder cancer cells and induced apoptosis through EGFR/PI3K/AKT and EGFR/ERK pathways to exert antitumor effects.

SMILES strings stand for the structures. Values after ≈ are worked out from the molar mass of the structure shown. A value given as a limit tells only on which side of the number the result lay.

For the compound `C[C@H]1CCC/C=C/[C@@H]2C[C@H](O)C[C@H]2[C@H](OC(=O)/C=C/c2cccnc2)/C=C/C(=O)O1` [CHNQD-01281, Brefeldin A 4-O-3-(pyridin-3-yl) acrylate], in series [1], the IC90 turned out to be 2520 nM. In series [1] (72 h), 1160 nM corresponded to half-maximal inhibition (IC50). Also, the solubility is less than 1000 µg/mL in series [2] (Saline or PBS used alone); less than 1000 µg/mL in series [2] (aqueous with cosolvent or surfactant or cyclodextrin, No. 2: Saline/DMSO 95/5, pH 7.4, 25 °C); less than 1000 µg/mL in series [2] (aqueous with cosolvent or surfactant or cyclodextrin, No. 3: PBS/DMSO 95/5, pH 7.4, 25 °C); less than 1000 µg/mL in series [2] (aqueous with cosolvent or surfactant or cyclodextrin, No. 4: Saline/PEG400 95/5, pH 7.4, 25 °C); less than 1000 µg/mL in series [2] (aqueous with cosolvent or surfactant or cyclodextrin, No. 5: Saline/PEG400 80/20, pH 7.4, 25 °C); 12000 to 15000 µg/mL (≈ 29200 to 36500 µM) in series [2] (aqueous with cosolvent or surfactant or cyclodextrin, No. 6: Saline/DMSO/solutol HS-15 85/5/10, pH 7.4, 25 °C). Besides, the solubility in series [2] (aqueous with cosolvent or surfactant or cyclodextrin, No. 7: Saline/solutol HS-15 95/5, pH 7.4, 25 °C) is less than 1000 µg/mL; in series [2] (aqueous with cosolvent or surfactant or cyclodextrin, No. 8: Saline/solutol HS-15 90/10, pH 7.4, 25 °C), less than 1000 µg/mL; in series [2] (saline or isotonic, No. 1: Saline (0.9% NaCl) 100, pH 7.4, 25 °C), less than 1000 µg/mL. Also, the “improvement of solubility versus BFA” value in series [2] (saline with 5% DMSO and 10% solutol HS-15) was “approximately tenfold”. In addition, in series [3], the “maximum down-regulation of EGFR expression” value is reported as 77.61%.
